# Data: patent US20090318290A1, “N-(4-PYRIDIN-2-YLBUTYL) BENZAMIDE DERIVATIVES AND THEIR USE AS FUNGICIDES” (BAYER CROPSCIENCE SA, priority 2006, published 2009)
# Tested on: Pyrenophora teres
# Assay: In vivo test on Pyrenophora teres (barley net blotch)
# Conditions: dose of 110 ppm; barley plants (Express variety), preventive spray 24 hours before contamination; grading 12 days after contamination
# Experimental: The active ingredients tested are prepared by homogenization in a mixture of acetone/tween/DMSO, then diluted with water to obtain the desired active material concentration.
# Barley plants (Express variety), sown on a 50/50 peat soil-pozzolana substrate in starter cups and grown at 12° C., are treated at the 1-leaf stage (10 cm tall) by spraying with the active ingredient prepared as described above. Plants, used as controls, are treated with the mixture of acetone/tween/DMSO/water not containing the active material.
# After 24 hours, the plants are contaminated by spraying them with an aqueous suspension of Pyrenophora teres spores (12,000 spores per ml). The spores are collected from a 12-day-old culture. The contaminated barley plants are incubated for 24 hours at about 20° C. and at 100% relative humidity, and then for 12 days at 80% relative humidity.
# Grading is carried out 12 days after the contamination, in comparison with the control plants.
compound,measurement,value
O=C(NCCCCc1ncc(C(F)(F)F)cc1Cl)c1ccccc1C(F)(F)F [Compound 1],efficacy (grading in comparison with the control plants),at least 60%
